How the values were obtained:
Assay in all cases: relative viability (nuclei count vs DMSO), 5 days (fraction); higher = more cells survive
201T = system: 201T
In short: (§1)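 Lung cancer cell lines were pin-tool dosed in 1536-well plates on the day after seeding, with either a lone drug or a fixed anchor-drug dose plus five library-drug doses (not always all listed) in √10 steps. Nuclei were counted on 4× images after 5 days. Relative viability is the ratio of treated-well to vehicle-well nuclei counts, with each value a median of duplicate plates.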

COR-L 105 = system: COR-L 105
In short: as §1

ChaGo-K-1 = system: ChaGo-K-1
In short: as §1

EPLC-272H = system: EPLC-272H
In short: as §1

H3255 = system: H3255
In short: as §1

HCC-78 = system: HCC-78
In short: as §1

HCC-827 = system: HCC-827
In short: as §1

LC-2-ad = system: LC-2-ad
In short: as §1

LCLC-97TM1 = system: LCLC-97TM1
In short: as §1

NCI-H1666 = system: NCI-H1666
In short: as §1

NCI-H1915 = system: NCI-H1915
In short: as §1

NCI-H2087 = system: NCI-H2087
In short: as §1

NCI-H2126 = system: NCI-H2126
In short: as §1

NCI-H2347 = system: NCI-H2347
In short: as §1

NCI-H23 = system: NCI-H23
In short: as §1

NCI-H2405 = system: NCI-H2405
In short: as §1

NCI-H322M = system: NCI-H322M
In short: as §1

NCI-H520 = system: NCI-H520
In short: as §1

NCI-H647 = system: NCI-H647
In short: as §1

NCI-H650 = system: NCI-H650
In short: as §1

NCI-H661 = system: NCI-H661
In short: as §1

PC-14 = system: PC-14
In short: as §1

RERF-LC-KJ = system: RERF-LC-KJ
In short: as §1

## C=C1C(=O)O[C@@H](CCCCCCCC)[C@@H]1C(=O)O [C-75] + CC(C)C[C@H](NC(=O)[C@H](Cc1ccccc1)NC(=O)c1cnccn1)B(O)O [Bortezomib] (partner 0.002 µM)
201T; first compound 0.08 µM
  relative viability: 1.07
201T; first compound 0.253 µM
  relative viability: 1.24
201T; first compound 0.8 µM
  relative viability: 1.08
201T; first compound 2.53 µM
  relative viability: 1.15
201T; first compound 8 µM
  relative viability: 1.08
COR-L 105; first compound 0.08 µM
  relative viability: 0.838
COR-L 105; first compound 0.253 µM
  relative viability: 0.627
COR-L 105; first compound 0.8 µM
  relative viability: 0.779
COR-L 105; first compound 2.53 µM
  relative viability: 0.809
COR-L 105; first compound 8 µM
  relative viability: 0.728
ChaGo-K-1; first compound 0.08 µM
  relative viability: 0.927
ChaGo-K-1; first compound 0.253 µM
  relative viability: 0.944
ChaGo-K-1; first compound 0.8 µM
  relative viability: 0.894
ChaGo-K-1; first compound 2.53 µM
  relative viability: 0.872
ChaGo-K-1; first compound 8 µM
  relative viability: 0.96
EPLC-272H; first compound 0.08 µM
  relative viability: 1.03
EPLC-272H; first compound 0.253 µM
  relative viability: 0.845
EPLC-272H; first compound 0.8 µM
  relative viability: 0.792
EPLC-272H; first compound 2.53 µM
  relative viability: 0.833
EPLC-272H; first compound 8 µM
  relative viability: 0.913
H3255; first compound 0.08 µM
  relative viability: 0.841
H3255; first compound 0.253 µM
  relative viability: 0.811
H3255; first compound 0.8 µM
  relative viability: 0.715
H3255; first compound 2.53 µM
  relative viability: 0.799
H3255; first compound 8 µM
  relative viability: 0.8
HCC-78; first compound 0.08 µM
  relative viability: 0.507
HCC-78; first compound 0.253 µM
  relative viability: 0.412
HCC-78; first compound 0.8 µM
  relative viability: 0.386
HCC-78; first compound 2.53 µM
  relative viability: 0.423
HCC-78; first compound 8 µM
  relative viability: 0.472
HCC-827; first compound 0.08 µM
  relative viability: 1.09
HCC-827; first compound 0.253 µM
  relative viability: 0.995
HCC-827; first compound 0.8 µM
  relative viability: 0.972
HCC-827; first compound 2.53 µM
  relative viability: 1.01
HCC-827; first compound 8 µM
  relative viability: 1.08
LC-2-ad; first compound 0.08 µM
  relative viability: 1.04
LC-2-ad; first compound 0.253 µM
  relative viability: 0.97
LC-2-ad; first compound 0.8 µM
  relative viability: 0.985
LC-2-ad; first compound 8 µM
  relative viability: 0.961
LCLC-97TM1; first compound 0.08 µM
  relative viability: 0.636
LCLC-97TM1; first compound 0.253 µM
  relative viability: 0.595
LCLC-97TM1; first compound 0.8 µM
  relative viability: 0.222
LCLC-97TM1; first compound 2.53 µM
  relative viability: 0.477
LCLC-97TM1; first compound 8 µM
  relative viability: 0.218
NCI-H1666; first compound 0.08 µM
  relative viability: 0.888
NCI-H1666; first compound 0.253 µM
  relative viability: 0.948
NCI-H1666; first compound 0.8 µM
  relative viability: 0.7
NCI-H1666; first compound 2.53 µM
  relative viability: 0.7
NCI-H1666; first compound 8 µM
  relative viability: 0.641
NCI-H1915; first compound 0.08 µM
  relative viability: 0.89
NCI-H1915; first compound 0.253 µM
  relative viability: 0.977
NCI-H1915; first compound 0.8 µM
  relative viability: 0.935
NCI-H1915; first compound 2.53 µM
  relative viability: 0.81
NCI-H1915; first compound 8 µM
  relative viability: 0.922
NCI-H2087; first compound 0.08 µM
  relative viability: 0.724
NCI-H2087; first compound 0.253 µM
  relative viability: 0.863
NCI-H2087; first compound 0.8 µM
  relative viability: 0.743
NCI-H2087; first compound 2.53 µM
  relative viability: 0.396
NCI-H2087; first compound 8 µM
  relative viability: 0.581
NCI-H2126; first compound 0.08 µM
  relative viability: 1.1
NCI-H2126; first compound 0.253 µM
  relative viability: 1.29
NCI-H2126; first compound 0.8 µM
  relative viability: 1.09
NCI-H2126; first compound 2.53 µM
  relative viability: 0.886
NCI-H2126; first compound 8 µM
  relative viability: 1.08
NCI-H2347; first compound 0.08 µM
  relative viability: 1.06
NCI-H2347; first compound 0.253 µM
  relative viability: 1.09
NCI-H2347; first compound 2.53 µM
  relative viability: 0.851
NCI-H2347; first compound 8 µM
  relative viability: 0.741
NCI-H23; first compound 0.08 µM
  relative viability: 0.953
NCI-H23; first compound 0.253 µM
  relative viability: 1.07
NCI-H23; first compound 0.8 µM
  relative viability: 0.962
NCI-H23; first compound 2.53 µM
  relative viability: 0.865
NCI-H23; first compound 8 µM
  relative viability: 0.696
NCI-H2405; first compound 0.08 µM
  relative viability: 0.995
NCI-H2405; first compound 0.253 µM
  relative viability: 0.773
NCI-H2405; first compound 0.8 µM
  relative viability: 0.974
NCI-H2405; first compound 2.53 µM
  relative viability: 0.673
NCI-H2405; first compound 8 µM
  relative viability: 0.971
NCI-H322M; first compound 0.08 µM
  relative viability: 1.36
NCI-H322M; first compound 0.253 µM
  relative viability: 1.45
NCI-H322M; first compound 0.8 µM
  relative viability: 1.21
NCI-H322M; first compound 2.53 µM
  relative viability: 1.09
NCI-H322M; first compound 8 µM
  relative viability: 1.25
NCI-H520; first compound 0.08 µM
  relative viability: 0.442
NCI-H520; first compound 0.253 µM
  relative viability: 0.425
NCI-H520; first compound 0.8 µM
  relative viability: 0.578
NCI-H520; first compound 2.53 µM
  relative viability: 0.337
NCI-H520; first compound 8 µM
  relative viability: 0.58
NCI-H647; first compound 0.08 µM
  relative viability: 0.836
NCI-H647; first compound 0.253 µM
  relative viability: 1.1
NCI-H647; first compound 2.53 µM
  relative viability: 0.869
NCI-H647; first compound 8 µM
  relative viability: 0.809
NCI-H650; first compound 0.08 µM
  relative viability: 0.828
NCI-H650; first compound 0.253 µM
  relative viability: 0.691
NCI-H650; first compound 0.8 µM
  relative viability: 0.547
NCI-H650; first compound 2.53 µM
  relative viability: 0.745
NCI-H650; first compound 8 µM
  relative viability: 0.586
NCI-H661; first compound 0.08 µM
  relative viability: 0.696
NCI-H661; first compound 0.253 µM
  relative viability: 0.873
NCI-H661; first compound 0.8 µM
  relative viability: 0.731
NCI-H661; first compound 2.53 µM
  relative viability: 0.973
NCI-H661; first compound 8 µM
  relative viability: 0.655
PC-14; first compound 0.08 µM
  relative viability: 0.853
PC-14; first compound 0.253 µM
  relative viability: 0.969
PC-14; first compound 0.8 µM
  relative viability: 0.94
PC-14; first compound 2.53 µM
  relative viability: 0.726
PC-14; first compound 8 µM
  relative viability: 0.965
RERF-LC-KJ; first compound 0.08 µM
  relative viability: 1.17
RERF-LC-KJ; first compound 0.253 µM
  relative viability: 1.09
RERF-LC-KJ; first compound 0.8 µM
  relative viability: 1.21
RERF-LC-KJ; first compound 2.53 µM
  relative viability: 1.09
RERF-LC-KJ; first compound 8 µM
  relative viability: 1.31

Source: the supplement of paper PMC10307832
